Reference: patent US20080171737A1 (Wyeth, priority 2006, published 2008)
Structures can show the parent of a compound that is named as a salt.

The compounds below were run against T1, human hNET (Homo sapiens, UniProt P23975) (assay: Functional norepinephrine reuptake assay, Procedure B (6,000 cells/well)). Settings: MDCK-Net6 cells, 6,000 cells/well, 16 nM 3H-norepinephrine; read-out: Procedure B hNET uptake IC50.
T1 construct: expressed in transfected cells; host or cells: MDCK-Net6 (MDCK cells stably transfected with hNET)
T1 sequence (P23975 whole entry): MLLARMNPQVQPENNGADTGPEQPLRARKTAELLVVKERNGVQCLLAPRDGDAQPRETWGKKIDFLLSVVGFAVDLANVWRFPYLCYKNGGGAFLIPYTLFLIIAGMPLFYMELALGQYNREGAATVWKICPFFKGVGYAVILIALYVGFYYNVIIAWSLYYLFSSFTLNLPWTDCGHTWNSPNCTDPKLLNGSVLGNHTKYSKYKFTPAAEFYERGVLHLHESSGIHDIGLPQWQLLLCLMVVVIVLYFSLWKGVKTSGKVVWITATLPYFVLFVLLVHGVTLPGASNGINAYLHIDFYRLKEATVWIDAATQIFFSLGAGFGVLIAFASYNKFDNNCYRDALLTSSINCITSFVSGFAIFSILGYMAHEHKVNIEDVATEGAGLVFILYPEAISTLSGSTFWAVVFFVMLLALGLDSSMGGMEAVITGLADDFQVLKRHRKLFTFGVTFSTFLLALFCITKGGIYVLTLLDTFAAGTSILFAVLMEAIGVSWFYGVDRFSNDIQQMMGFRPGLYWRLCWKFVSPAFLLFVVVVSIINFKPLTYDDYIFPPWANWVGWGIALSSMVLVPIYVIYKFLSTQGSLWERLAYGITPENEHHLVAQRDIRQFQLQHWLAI
Format: cell-based
Method: For screening, 25 μl aliquots of compound solution at a 1 μM or 10 μM final concentration was delivered directly to cells.
For IC50 determinations, stock compounds were prepared at 10 mM from powder. The stock solution was diluted according to compound testing range. […] On the day of assay, 25 μl of compound solution at the specified concentrations were added to the plates containing cells. A DMSO stock of desipramine was prepared at 10 mM in DMSO and diluted for a final concentration of 20 μM to determine the non-specific reuptake.
MDCK-Net6 cells, stably transfected with human hNET (Pacholczyk, 1991), were maintained in growth media [high glucose DMEM (Gibco Cat. 11995), 10% FBS (dialyzed, heat-inactivated, Sigma, dialysed, heat inactivated, Lot# K0922 or equivalent) 1xPen/Strep, and 500 μg/ml G418 (Gibco Cat. 10131)]. Cells were plated at 300,000/T75 flask and cells split twice weekly.
Cells were plated at 50,000 cells/well (Procedure A) or 6,000 cells/well (Procedure B) on day 1 in BD Falcon Microtest 96-well sterile cell culture plates, Optilux White/Clear Bottom TC plate (VWR; # 62406-466 or equivalent) in growth media and maintained in a cell incubator (37° C., 5% CO2). On Day 2, cells were removed from the cell incubator and the growth media is replaced by 200 μl of assay buffer (25 mm HEPES 120 mM NaCL; 5 mM KCl; 2.5 mM CaCl2; 1.2 mM MgSO4; 2 mg/ml glucose (pH 7.4, 37° C.)) containing 0.2 mg/ml ascorbic acid and 1 μM parglyine. For screening, 25 μl of compound in 4% DMSO was added directly to each well and the plate was incubated for 5 minutes (37° C.). […] The reaction is aspirated from the plate and the cells washed with 250 μl of 50 mM Tris Buffer (4° C.). The plates were left to dry for 1 hour. The cells were lysed using 0.25 M NaOH solution then placed on a shake table and vigorously shaken for 10 minutes. After cell lysis, 100 μl of Microscint 20 (PerkinElmer; #87-051101) was added to the plates and the plates were sealed with film tape and replaced on the shake table for a minimum of 10 minutes. The plates were counted in a TopCount counter (PerkinElmer).
% inhibition=[1−((mean cpm test compound wells−mean cpm non-specific wells)/(mean cpm control wells−mean cpm non-specific wells))]×100
For IC50 determination, raw cpm values were generated in a data file from the TopCount counter. The data was organized using the Microsoft Excel and transferred into PRIZM graphing and statistical program, which calculated the estimated IC50 value. Calculation of IC50 values was made using non-linear regression analysis with a sigmoidal dose response with variable slope. The statistical program used wells containing ^3H norepinephrine only as the maximal NE reuptake determinant and wells containing ^3H norepinephrine plus 20 μM desipramine (AHR-9543) as the minimal NE reuptake determinant (non-specific determinant). Estimation of the IC50 value was completed on a log scale and the line was fit between the maximal and minimal NE reuptake values.
`CNCCC1Oc2ccccc2N(c2ccccc2)S1(=O)=O` (stereo not shown) [Example 25, 2-(2,2-dioxido-1-phenyl-1H-4,2,1-benzoxathiazin-3-yl)-N-methylethanamine] was tested, and the IC50 was 0.163 µM.
`CN(C)CCC1Oc2ccccc2N(c2ccccc2)S1(=O)=O` (stereo not shown) [Example 26, 2-(2,2-dioxido-1-phenyl-1H-4,2,1-benzoxathiazin-3-yl)-N,N-dimethylethanamine] gave an IC50 of 0.0971 µM.
`CCCNCCC1Oc2ccccc2N(c2ccccc2)S1(=O)=O` (stereo not shown) [Example 27, N-[2-(2,2-dioxido-1-phenyl-1H-4,2,1-benzoxathiazin-3-yl)ethyl]propan-1-amine] showed an IC50 of 4.41 µM.
For `CC(C)CNCCC1Oc2ccccc2N(c2ccccc2)S1(=O)=O` (stereo not shown) [Example 28, N-[2-(2,2-dioxido-1-phenyl-1H-4,2,1-benzoxathiazin-3-yl)ethyl]-2-methylpropan-1-amine], the IC50 was 1.76 µM.
Compound `O=S1(=O)C(CCN2CCCC2)Oc2ccccc2N1c1ccccc1` (stereo not shown) [Example 29, 1-phenyl-3-(2-pyrrolidin-1-ylethyl)-1H-4,2,1-benzoxathiazine 2,2-dioxide] has an IC50 of 1.64 µM.
Compound `CCCCNCCC1Oc2ccccc2N(c2ccccc2)S1(=O)=O` (stereo not shown) [Example 31, N-[2-(2,2-dioxido-1-phenyl-1H-4,2,1-benzoxathiazin-3-yl)ethyl]butan-1-amine] has an IC50 of 1.66 µM.
For `NCCCC1Oc2ccccc2N(c2ccccc2)S1(=O)=O` (stereo not shown) [Example 33, 3-(2,2-dioxido-1-phenyl-1H-4,2,1-benzoxathiazin-3-yl)propan-1-amine], the IC50 was 0.597 µM.
In the case of `CCNCCCC1Oc2ccccc2N(c2ccccc2)S1(=O)=O` (stereo not shown) [Example 34, 3-(2,2-dioxido-1-phenyl-1H-4,2,1-benzoxathiazin-3-yl)-N-ethylpropan-1-amine], the IC50 is reported as 2.58 µM.
`CCCNCCCC1Oc2ccccc2N(c2ccccc2)S1(=O)=O` (stereo not shown) [Example 35, 3-(2,2-dioxido-1-phenyl-1H-4,2,1-benzoxathiazin-3-yl)-N-propylpropan-1-amine] gave an IC50 of 5.1 µM.
In the case of `O=S1(=O)C(CCCNC2CC2)Oc2ccccc2N1c1ccccc1` (stereo not shown) [Example 40, N-[3-(2,2-dioxido-1-phenyl-1H-4,2,1-benzoxathiazin-3-yl)propyl]cyclopropanamine], the IC50 is reported as 1.07 µM.
`CNCCCC1Oc2ccc(F)cc2N(c2ccccc2)S1(=O)=O` (stereo not shown) [Example 44, 3-(7-fluoro-2,2-dioxido-1-phenyl-1H-4,2,1-benzoxathiazin-3-yl)-N-methylpropan-1-amine] was tested, and the IC50 was 0.875 µM.
With `CNCCCC1Oc2cc(Cl)ccc2N(c2ccccc2)S1(=O)=O` (stereo not shown) [Example 45, 3-(6-chloro-2,2-dioxido-1-phenyl-1H-4,2,1-benzoxathiazin-3-yl)-N-methylpropan-1-amine] the IC50 was 0.114 µM.
`CNCCCC1Oc2cc(F)ccc2N(c2ccccc2)S1(=O)=O` (stereo not shown) [Example 46, 3-(6-fluoro-2,2-dioxido-1-phenyl-1H-4,2,1-benzoxathiazin-3-yl)-N-methylpropan-1-amine] was tested, and the IC50 was 0.0927 µM.
Work on `CNCCCC1Oc2c(F)cccc2N(c2ccccc2)S1(=O)=O` (stereo not shown) [Example 47, 3-(5-fluoro-2,2-dioxido-1-phenyl-1H-4,2,1-benzoxathiazin-3-yl)-N-methylpropan-1-amine] yielded an IC50 of 0.431 µM.
Work on `CNCCCC1Oc2cccc(F)c2N(c2ccccc2)S1(=O)=O` (stereo not shown) [Example 48, 3-(8-fluoro-2,2-dioxido-1-phenyl-1H-4,2,1-benzoxathiazin-3-yl)-N-methylpropan-1-amine] yielded an IC50 of 0.636 µM.
For `CNCCCC1Oc2cccc(C)c2N(c2ccccc2)S1(=O)=O` (stereo not shown) [Example 49, N-methyl-3-(8-methyl-2,2-dioxido-1-phenyl-1H-4,2,1-benzoxathiazin-3-yl)propan-1-amine], the IC50 was 0.9 µM.
Compound `CNCCCC1Oc2ccc(C)cc2N(c2ccccc2)S1(=O)=O` (stereo not shown) [Example 50, N-methyl-3-(7-methyl-2,2-dioxido-1-phenyl-1H-4,2,1-benzoxathiazin-3-yl)propan-1-amine] has an IC50 of 0.114 µM.
Compound `CNCCCC1Oc2cc(C)ccc2N(c2ccccc2)S1(=O)=O` (stereo not shown) [Example 51, N-methyl-3-(6-methyl-2,2-dioxido-1-phenyl-1H-4,2,1-benzoxathiazin-3-yl)propan-1-amine] has an IC50 of 0.249 µM.
Work on `CNCCCC1Oc2cc(OC)ccc2N(c2ccccc2)S1(=O)=O` (stereo not shown) [Example 52, 3-(6-methoxy-2,2-dioxido-1-phenyl-1H-4,2,1-benzoxathiazin-3-yl)-N-methylpropan-1-amine] yielded an IC50 of 0.607 µM.
For `CNCCCC1Oc2ccc(Cl)cc2N(c2ccccc2)S1(=O)=O` (stereo not shown) [Example 53, 3-(7-chloro-2,2-dioxido-1-phenyl-1H-4,2,1-benzoxathiazin-3-yl)-N-methylpropan-1-amine], the IC50 was 0.187 µM.
Work on `CNCCCC1Oc2ccc(-c3ccccc3)cc2N(c2ccccc2)S1(=O)=O` (stereo not shown) [Example 54, 3-(2,2-dioxido-1,7-diphenyl-1H-4,2,1-benzoxathiazin-3-yl)-N-methylpropan-1-amine] yielded an IC50 of 0.407 µM.
Compound `CNCCCC1Oc2cc3ccccc3cc2N(c2ccccc2)S1(=O)=O` (stereo not shown) [Example 55, 3-(2,2-dioxido-1-phenyl-1H-naphtho[2,3-e][1,3,4]oxathiazin-3-yl)-N-methylpropan-1-amine hydrochloride] has an IC50 of 0.0478 µM.
`CNCCCC1Oc2ccccc2N(c2cccnc2)S1(=O)=O` (stereo not shown) [Example 56, 3-(2,2-dioxido-1-pyridin-3-yl-1H-4,2,1-benzoxathiazin-3-yl)-N-methylpropan-1-amine] gave an IC50 of 0.345 µM.
With `CN(CCCC1Oc2ccccc2N(c2ccccc2)S1(=O)=O)Cc1ccccc1` (stereo not shown) [Example 58, N-benzyl-3-(2,2-dioxido-1-phenyl-1H-4,2,1-benzoxathiazin-3-yl)-N-methylpropan-1-amine hydrochloride] the IC50 was 0.822 µM.

Same assay, conditions: MDCK-Net6 cells, 6,000 cells/well; Conc 6000 nM (6 μM); read-out: Procedure B hNET uptake (% inhibition)
For `CN1CCN(CCC2Oc3ccccc3N(c3ccccc3)S2(=O)=O)CC1` (stereo not shown) [Example 30, 3-[2-(4-methylpiperazin-1-yl)ethyl]-1-phenyl-1H-4,2,1-benzoxathiazine 2,2-dioxide], the inhibition at 6 µM was 35%.
`O=S1(=O)C(CCNC2CCC2)Oc2ccccc2N1c1ccccc1` (stereo not shown) [Example 32, N-[2-(2,2-dioxido-1-phenyl-1H-4,2,1-benzoxathiazin-3-yl)ethyl]cyclobutanamine] showed an inhibition at 6 µM of 54%.
`CCCCNCCCC1Oc2ccccc2N(c2ccccc2)S1(=O)=O` (stereo not shown) [Example 36, N-[3-(2,2-dioxido-1-phenyl-1H-4,2,1-benzoxathiazin-3-yl)propyl]butan-1-amine] gave an inhibition at 6 µM of 57%.
Work on `CC(C)NCCCC1Oc2ccccc2N(c2ccccc2)S1(=O)=O` (stereo not shown) [Example 37, 3-(2,2-dioxido-1-phenyl-1H-4,2,1-benzoxathiazin-3-yl)-N-isopropylpropan-1-amine] yielded an inhibition at 6 µM of 15%.
For `CC(C)CNCCCC1Oc2ccccc2N(c2ccccc2)S1(=O)=O` (stereo not shown) [Example 38, N-[3-(2,2-dioxido-1-phenyl-1H-4,2,1-benzoxathiazin-3-yl)propyl]-2-methylpropan-1-amine], the inhibition at 6 µM was 63%.
`O=S1(=O)C(CCCNCCCO)Oc2ccccc2N1c1ccccc1` (stereo not shown) [Example 39, 3-{[3-(2,2-dioxido-1-phenyl-1H-4,2,1-benzoxathiazin-3-yl)propyl]amino}propan-1-ol] showed an inhibition at 6 µM of 32%.
For `O=S1(=O)C(CCCNC2CCC2)Oc2ccccc2N1c1ccccc1` (stereo not shown) [Example 41, N-[3-(2,2-dioxido-1-phenyl-1H-4,2,1-benzoxathiazin-3-yl)propyl]cyclobutanamine], the inhibition at 6 µM was 50%.
Work on `O=S1(=O)C(CCCNC2CCCC2)Oc2ccccc2N1c1ccccc1` (stereo not shown) [Example 42, N-[3-(2,2-dioxido-1-phenyl-1H-4,2,1-benzoxathiazin-3-yl)propyl]cyclopentanamine] yielded an inhibition at 6 µM of 48%.
For `O=S1(=O)C(CCCNC2CCCCC2)Oc2ccccc2N1c1ccccc1` (stereo not shown) [Example 43, N-[3-(2,2-dioxido-1-phenyl-1H-4,2,1-benzoxathiazin-3-yl)propyl]cyclohexanamine], the inhibition at 6 µM was 67%.
Work on `CNCCCC1Oc2ccccc2N(c2cnc3ccccc3c2)S1(=O)=O` (stereo not shown) [Example 57, 3-(2,2-dioxido-1-quinolin-3-yl-1H-4,2,1-benzoxathiazin-3-yl)-N-methylpropan-1-amine] yielded an inhibition at 6 µM of 41%.
